Measured values published in patent US20180127700A1, “Cell Culture Substrate for Rapid Release and Re-Plating” (priority 2015, published 2018).

Tested on: NIH/3T3 mouse embryonic fibroblast cells
Assay: Tissue module release/detachment from shape-memory pNIPAAm polymer microbeams upon thermally initiated swelling
Format: cell-based
Set-up: tissue module detachment after microbeam swelling (in words): dose or concentration left out as unconfirmed
Conditions: for effect of treatment on tissue module detachment (in words): all strains tested, pNIPAAm microbeams
Procedure: NIH/3T3 mouse embryonic fibroblast cells were cultured in 10% NCS growth medium containing 1% antibiotics (10,000 units/ml penicillin and 10,000 μg/ml streptomycin stock solution) at 37° C. in a humidified atmosphere of 5% CO2. To prepare tissue modules, trypsinized fibroblasts were seeded onto the fabricated shape-memory polymer arrays at a density of 500-750 cells/mm^2 and cultured at 37° C. until confluence (24-48 h). Studies of release from low cell density (100 cells/mm^2) were cultured for 24 h.
Rapid release of tissue modules was induced by thermally initiated swelling of the shape-memory polymer beams. 2 ml of cold PBS (4-10° C.) was introduced (1 ml at a time) into the seeded dish containing 2.5 ml of 37° C. medium resulting in cooling to about 27° C. Cell release was monitored via time-lapse image acquisition on a microscope for at least 70 s.
The mode of cell release from shape-memory polymer surfaces was examined by separately treating seeded samples with agents that modulate metabolism, contractility or adhesion.
To investigate the effect of surface strain on attached cells, the concentration of the network crosslinker (MBAm) in the prepolymer solution was varied from 1 to 4% before MIMIC processing. The one-dimensional width-wise strain in each microbeam was calculated from phase contrast micrographs as follows: […]
where ε is the Cauchy strain, Wcollapsed is the width of the polymer beam in the collapsed state and Wswollen is the width of the polymer beam in the swollen state. Cell detachment was calculated as the percent of cells released from the microbeams within 3 min after thermal stimulation.

| SMILES | cell release after initiating shape change (in words) (2 mM DTSSP for 30 min prior to release, within 5 min of initiating shape change) | effect of treatment on tissue module detachment (in words) | tissue module detachment after microbeam swelling (in words) (Y-27632 for 30 min prior to release, large strains (ε>0.25)) |
| --- | --- | --- | --- |
| O=C(CCSSCCC(=O)ON1C(=O)CC(S(=O)(=O)O)C1=O)ON1C(=O)CC(S(=O)(=O)O)C1=O (stereo not shown) [DTSSP, 3,3′-dithiobissulfosuccinimidylpropionate] | significant cell release was not observed | prevented tissue module detachment |  |
| C[C@@H](N)[C@H]1CC[C@H](C(=O)Nc2ccncc2)CC1 [Y-27632] |  | prevented tissue module detachment | primarily remained attached |
